Results published in patent EP0302967A2, “Quinazoline derivative, processes for its production, and cerebral dysfunction remedying agent comprising it as active ingredient” (priority 1987, dated 1989).
Like-named read-outs stand apart in the source and are kept apart here. Marks after values point to notes of the source that are not given here.

Key:
[1] = tested on: Male mice of the ddY strain; experiment: Anti-CO2-induced amnesia activity (one-trial passive avoidance response); format: in vivo; settings: retrieval 24 hours later, max 300 seconds
Description: Male mice of the ddY strain (body weight 20 - -30 g, 30 per group) were used. Anti-CO₂-induced amnesia activity was determined by using one-trial passive avoidance response as an index. The experimental device consisted of two compartments, one illuminated and the other dark, with a guillotine door in the boundary of the two compartments permitting free passage of the mice through it. In an acquisition trial, a mouse was placed in the illuminated compartment and allowed to enter the dark one. As soon as the mouse entered the dark compartment, the door was shut, and an electrical shock (0.5 mA, 0.2 sec.) was applied through the grid floor. Thus, the mouse was caused to learn that it receives an electric shock upon entering the dark room. In a retrieval trial, the mouse was again placed in the illuminated compartment 24 hours after the acquisition trial, and the time elapsed until it entered the dark compartment (response latency) was measured to an extent of 300 seconds at the longest. (One-trial passive avoidance response) Treatment of inducing amnesia by carbon dioxide was performed by putting the mouse in a 1.6-liter plastic container having a gas intake opening and an gas discharging opening immediately after the acquisition trial, and passing 100% carbon dioxide gas for 14 seconds at a flow rate of 8 liters/min. […]

[2] = Acute toxicity (LD50 by the Weil method); settings: male, ddY, mouse, in vivo, dead animals counted one week later, read-out: LD₅₀
Description: Male ddY mice (body weight 20 - 26 g, 5 per group) were allowed to fast overnight. The compound of this invention (dihydrochloride) dissolved in distilled water was orally (p.o.) administered. From the number of dead animals counted one week later, the LD₅₀ (p.o.) was calculated by the Weil method.
Then, the compound of this invention (dihydrochloride) was dissolved in saline and intraperitoneally (i.p.) administered to the mice, and the LD₅₀ value (i.p.) was measured similarly.

[3] = tested on: Male mice of the ddY strain; experiment: Anti-hypoxic activity: brain protection against complete ischemia by decapitation (gasping persistent time); format: in vivo; settings: decapitated one hour later, control group taken as 100 %, mean ± standard error
Description: Male mice of the ddY strain (body weight 20-25g, 5 per group) were orally given the compound of the invention (dihydrochloride) dissolved in 1% gum arabic solution. One hour later, the mice were decapitated, and the time elapsed until a gasping-like mouth opening movement appearing after decapitation ceased (gasping persistent time) was measured, and compared with that obtained with the control group (the group to which 1% gum arabic solution was administered).

brain homogenate = experiment: Lipid peroxide formation inhibiting activity (antioxidant activity), MDA formed by autoxidation; format: biochemical, Rats; settings: for Antioxidant activity (n=4) Mean ± standard error (%): percent inhibition of autoxidation on the brain homogenate, 37 °C, 30 minutes
Description: The effect of the test compound on the formation of lipid peroxide by autoxidation was determined by the amount of malondialdehyde (MDA) formed.
Rats were decapitated, and the cerebrum was taken out and homogenized with 4 ml, per gram of the cerebrum, of 50 mM phosphate saline-buffer (pH 7.4) and centrifuged (2800 rpm, 10 minutes). The supernatant was taken into a 10 ml test tube to obtain a brain homogenate. It was frozen at -70 °C and stored.
The brain homogenate was defrozen, and immediately then, diluted to 10-fold with the aforesaid phosphate saline-buffer. A 2 ml portion of the dilution was taken into a 10 ml test tube cooled with ice, and used to measure its antioxidant activity. Twenty microliters of an aqueous solution of the compound of this invention (dihydrochloride) was added. The amount of MDA immediately after the addition was measured as shown below (MDA 0 time). The mixture was incubated at 37 °C for 30 minutes. The reaction was stopped by adding 400 microliters of 35% perchloric acid solution. After cooling with ice, the cooled mixture was centrifuged (2800 rpm, 10 minutes). To 1 ml of the supernatant, 0.5 ml of 0.5 % thiobarbituric acid solution dissolved in 50% acetic acid solution was added, and the mixture was heated at 100 °C for 15 minutes. After cooling with ice, the absorbance of the solution at 532 nm was measured, and the amount of MDA formed was determined (MDAtest).
As a control, the amount of MDA (MDAcont) was determined as above.
The antioxidant activity of the compound of the invention was expressed in terms of percent inhibition of autoxidation on the brain homogenate. The calculation was based on the following equation. [formula]

[4] = tested on: Male mice of the ddY strain; experiment: Anti-scopolamine-induced amnesia activity (one-trial passive avoidance response); format: in vivo; settings: scopolamine hydrobromide 1 mg/kg i.p.; for Mean latency (seconds): p<0.01
Description: Male mice of the ddY strain (body weight 20-25g, 20 per group) were used, and the activity of the test compound on deficit of memory induced by scopolamine hydrobromide (a muscarinic acetylcholine receptor antagonist) was examined using one-trial passive avoidance response as an index. Using the same experimental device as in Test Example 1, the same acquisition trial and retrieval trial as in Test Example 1 were carried out (one-trial passive avoidanse response). Scopolamine hydrobromide (1 mg/kg) was intra peritoneally (i.p.) administered to the animals 20 minutes before the acquisition trial. The compound of the invention (dihydrochloride) was dissolved in 1 % gum arabic solution, and intraperitoneally administered immediately after the acquisition trial, and orally (p.o.) administered 60 minutes before the acquisition trial. A 1% solution of gum arabic was administered to the control group.

[5] = tested on: Male mice of the ddY strain; experiment: Anti-hypoxic activity: brain protection against normobaric hypoxia (survival time in 100% nitrogen); format: in vivo; settings: one hour before 100% nitrogen, control group taken as 100 %, mean ± standard error, p<0.01
Description: Male mice of the ddY strain (body weight 20-25g, 5 per group) were orally administered with the compound of the invention (dihydrochloride) dissolved in a 1% gum arabic solution. One hour after the administration, the mouse was put in a transparent plastic container (capacity 27 liters) through which 100% nitrogen was passed at a rate of 80 liters/min. The time elapsed until the animal died (the survival time) was measured, and compared with that obtained with the control group (the group to which 1% gum arabic solution was administered).

C=CCN1CCN(c2nc(OCCCCC)c3ccccc3n2)CC1.Cl.Cl [Compound of the invention (2HCl), 2-(4-allyl-1-piperazinyl)-4-pentyloxyquinazoline dihydrochloride]
Mean latency ([1]; 10 mg/kg orally 60 minutes before acquisition trial, control group 155.3): 185.8 s | Mean latency (seconds) ([1]; 30 mg/kg orally 60 minutes before acquisition trial, control group 155.3, p<0.01): 230.0**1) seconds | LD50 at 1 week ([2]; ip, in saline): 220 mg/kg | LD50 at 1 week ([2]; po, in distilled water, fasted overnight): 1270 mg/kg | Mean gasping persistent time (%) ([3]; 10 mg/kg orally): 107 ± 6% | Mean gasping persistent time (%) ([3]; 30 mg/kg orally, p<0.01): 139 ± 6 ** 2) % | Mean gasping persistent time (%) ([3]; 100 mg/kg orally, p<0.01): 187 ± 8 % | Antioxidant activity (n=4) Mean ± standard error (%) (brain homogenate; 10 µM): 6.4 ± 7.7% | Antioxidant activity (n=4) Mean ± standard error (%) (brain homogenate; 30 µM): 27.1 ± 6.8% | Antioxidant activity (n=4) Mean ± standard error (%) (brain homogenate; 100 µM): 77.9 ± 3.1% | Antioxidant activity (n=4) Mean ± standard error (%) (brain homogenate; 300 µM): 93.4 ± 2.2% | IC50 (brain homogenate; inhibition of autoxidation (MDA formation) on the brain homogenate, read-out: 50% inhibition concentration (IC₅₀)): 52 µM | Mean latency (seconds) ([4]; 3 mg/kg (as free base) i.p. immediately after acquisition trial, control group 92.0): 190.4 **2) seconds | Mean latency (seconds) ([4]; 10 mg/kg (as free base) i.p. immediately after acquisition trial, control group 92.0): 185.1 ** seconds | Mean latency ([4]; 10 mg/kg (as free base) p.o. 60 minutes before acquisition trial, control group 63.1): 59.8 s | Mean latency (seconds) ([4]; 30 mg/kg (as free base) i.p. immediately after acquisition trial, control group 92.0): 208.7 ** seconds | Mean latency (seconds) ([4]; 30 mg/kg (as free base) p.o. 60 minutes before acquisition trial, control group 63.1): 144.6 ** seconds | Survival time (%) ([5]; 10 mg/kg orally): 122 ± 5 [1)**2)] % | Survival time (%) ([5]; 30 mg/kg orally): 151 ± 7 %
